Measurements published in BindingDB's records for doi:10.1016/0960-894X(95)00215-F (n/a, 1995).

Molecular target: Phospholipase A2 group IIA
Assay: Concentration required for in vitro inhibitory activity against human type II phospholipase A2

IC50 [nM]	SMILES
676	CCOC(=O)[C@@]1(Cc2ccccc2)S[C@H](F)C(C)(C)C1=O
4090	CCOC(=O)[C@@]1(Cc2ccccc2)S[C@@H](F)C(C)(C)C1=O
